Data: ChEMBL document CHEMBL1201862, “PubChem BioAssay data set” (2004)
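Five concentrations, 48 hours, 96-well plates. GI50 = concentration required for 50% inhibition of growth.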 Calls of active or inactive are those of the source. Rule as the data show it: active = GI50 up to about 1.1 µM and inactive = higher.

Tests used:
Experiment in all cases: NCI-60 cell line screen, 48 h
[1] = tested on: M14
[2] = tested on: NCI-H522
[3] = tested on: MCF7
[4] = tested on: A549
[5] = tested on: OVCAR-5
[6] = tested on: NCI-H23
[7] = tested on: HL-60
[8] = tested on: SR
[9] = tested on: EKVX
[10] = tested on: SK-MEL-5
[11] = tested on: SNB-19
[12] = tested on: DU-145
[13] = tested on: OVCAR-4
[14] = tested on: SK-MEL-2
[15] = tested on: U-251
[16] = tested on: Malme-3M
[17] = tested on: NCI-H460
[18] = tested on: HCT-116
[19] = tested on: BT-549
[20] = tested on: MDA-MB-435
[21] = tested on: HOP-92
[22] = tested on: SF-539
[23] = tested on: K562
[24] = tested on: NCI/ADR-RES
[25] = tested on: SNB-75
[26] = tested on: RPMI-8226
[27] = tested on: CCRF-CEM
[28] = tested on: MDA-MB-231
[29] = tested on: IGROV-1
[30] = tested on: SW-620
[31] = tested on: CAKI-1
[32] = tested on: HCT-15
[33] = tested on: SF-295
[34] = tested on: OVCAR-8
[35] = tested on: COLO 205
[36] = tested on: MOLT-4
[37] = tested on: SK-OV-3
[38] = tested on: UO-31
[39] = tested on: KM12
[40] = tested on: MDA-N
[41] = tested on: PC-3
[42] = tested on: SN12C
[43] = tested on: RXF 393
[44] = tested on: HT-29
[45] = tested on: ACHN
[46] = tested on: 786-0
[47] = tested on: SK-MEL-28
[48] = tested on: LOX IMVI
[49] = tested on: A498
[50] = tested on: NCI-H226
[51] = tested on: HCC 2998
[52] = tested on: UACC-257
[53] = tested on: OVCAR-3
[54] = tested on: UACC-62
[55] = tested on: HOP-62
[56] = tested on: T47D
[57] = tested on: Hs-578T
[58] = tested on: SF-268
[59] = tested on: TK-10

Measured: GI50

c1ccc2c(c1)c(N1CCCCC1)cc1nc3c(cc(N4CCCCC4)c4ccccc43)nc12
inactive: [1] > 100 µM | [2] > 100 µM | [3] > 100 µM | [4] > 100 µM | [5] > 100 µM | [6] > 100 µM | [7] > 100 µM | [8] > 100 µM | [9] > 100 µM | [10] > 100 µM | [11] > 100 µM | [12] > 100 µM | [13] > 100 µM | [14] > 100 µM | [15] > 100 µM | [16] > 100 µM | [17] > 100 µM | [18] > 100 µM | [19] > 100 µM | [20] > 100 µM | [21] > 100 µM | [22] > 100 µM | [23] > 100 µM | [24] > 100 µM | [25] 11.9 µM | [26] > 100 µM | [27] > 100 µM | [28] > 100 µM | [29] > 100 µM | [30] > 100 µM | [31] > 100 µM | [33] > 100 µM | [34] > 100 µM | [35] > 100 µM | [36] > 100 µM | [37] > 100 µM | [38] > 100 µM | [39] > 100 µM | [40] > 100 µM | [41] > 100 µM | [42] > 100 µM | [43] > 100 µM | [44] > 100 µM | [45] > 100 µM | [46] > 100 µM | [47] > 100 µM | [48] > 100 µM | [49] > 100 µM | [50] > 100 µM | [51] > 100 µM | [52] > 100 µM | [53] > 100 µM | [54] > 100 µM | [55] > 100 µM
> 100 µM: [32]

O=C(Nc1ccc(Br)cc1)c1c(-c2ccccc2)c2ccc(O)cc2oc1=O
inactive: [1] > 10 µM | [2] > 10 µM | [3] > 10 µM | [5] > 10 µM | [6] > 10 µM | [7] > 10 µM | [8] > 10 µM | [9] > 10 µM | [10] > 10 µM | [12] > 10 µM | [13] > 10 µM | [14] > 10 µM | [15] > 10 µM | [16] > 10 µM | [56] > 10 µM | [17] > 10 µM | [20] > 10 µM | [21] > 10 µM | [22] > 10 µM | [57] > 10 µM | [23] > 10 µM | [24] > 10 µM | [58] > 10 µM | [25] > 10 µM | [26] > 10 µM | [27] > 10 µM | [28] > 10 µM | [59] > 10 µM | [29] > 10 µM | [30] > 10 µM | [31] > 10 µM | [33] > 10 µM | [34] > 10 µM | [35] > 10 µM | [36] > 10 µM | [37] > 10 µM | [38] > 10 µM | [39] > 10 µM | [40] > 10 µM | [41] > 10 µM | [42] > 10 µM | [43] > 10 µM | [44] > 10 µM | [45] > 10 µM | [46] > 10 µM | [47] > 10 µM | [48] > 10 µM | [49] > 10 µM | [50] > 10 µM | [51] > 10 µM | [52] > 10 µM | [53] > 10 µM | [55] > 10 µM
> 10 µM: [32]

CC1(C)COC(c2cccc(C3=NC(C)(C)CO3)c2)=N1
inactive: [1] > 100 µM | [3] > 100 µM | [4] > 100 µM | [5] > 100 µM | [6] > 100 µM | [8] > 100 µM | [9] > 100 µM | [10] > 100 µM | [11] > 100 µM | [12] > 100 µM | [13] 83.9 µM | [14] > 100 µM | [15] > 100 µM | [16] > 100 µM | [56] 3.75 µM | [17] > 100 µM | [18] > 100 µM | [19] > 100 µM | [20] > 100 µM | [21] > 100 µM | [22] > 100 µM | [23] > 100 µM | [24] > 100 µM | [58] > 100 µM | [26] > 100 µM | [28] > 100 µM | [59] > 100 µM | [29] > 100 µM | [30] > 100 µM | [31] > 100 µM | [34] > 100 µM | [35] > 100 µM | [36] > 100 µM | [38] > 100 µM | [39] > 100 µM | [41] > 100 µM | [44] > 100 µM | [45] > 100 µM | [46] > 100 µM | [47] > 100 µM | [48] > 100 µM | [50] > 100 µM | [51] > 100 µM | [52] > 100 µM | [54] 64.3 µM | [55] > 100 µM
> 100 µM: [32]
active: [53] 0.0375 µM
